{
  "source": "patent US9724448B2",
  "about": "“Materials for gastrointestinal obstruction prevention” (3-D MATRIX, LTD., priority 2013, dated 2017)",
  "type_in_all_cases": "in vivo, human",
  "key": {"[1]": {"system": "artificial ulcer after ESD of early-stage esophageal cancer", "assay": "Stenosis prevention after endoscopic resection of esophageal cancer (artificial ulcer, 4/5 circumferential spread)", "experimental": "Testing was performed on a subject having an ulcer (lesion) after an endoscopic resection of esophageal cancer. […] Endoscopic submucosal dissection was performed, which created an ulcer. […] A ⅘ circumferential spread may cause stenosis in the absence of applying a peptide solution to form a hydrogel. After confirming that there was no hemorrhaging in the artificial ulcer surface after an endoscopic resection, a catheter was passed through an endoscope, and a peptide solution such as PuraMatrix™ peptide hydrogel by 3-D Matrix, LTD. (2.5%, suitable dose (1 mL per 1 cm^2)) in a syringe was coated evenly over the ulcer surface. […] On the first week after surgery, an endoscope is used to review the area. At this time, as with the initial round, the peptide solution is coated evenly over the ulcer surface. For past cases, an endoscope was used to perform a third and fourth review of the area, in the fourth and eighth weeks, respectively, after surgery that induced stenosis, to judge the effectiveness of the peptide solution coating. […] The endoscope passage is possible in stenosis direction."}, "[2]": {"system": "ESD-induced ulcer (esophageal, gastric, colorectal ESD)", "experimental": "Testing was performed in human subjects in order to determine the ability of disclosed peptides to prevent gastrointestinal obstruction. Subjects who underwent esophageal, gastric, and colorectal endoscopic submucosal dissection (ESD) by nine endoscopists participated in the testing. Subjects receiving antithrombotic therapy were included in the study, but such medications were no longer being administered prior to the procedures. Cases with perforation and coagulopathy (international normalized ratio (INR)>3) despite anticoaculation management after heparin bridge therapy (HBT) were excluded. […] After the ESD procedure, a self-assembling peptide was administered to a target area in the subject. […] For every 1 cm^2 of tumor, 1 mL of self-assembling peptide RADA16, in the form of PuraMatrix™ peptide hydrogel by 3-D Matrix, LTD. (2.5 w/v percent) was applied to the ESD-induced ulcer using a catheter immediately after the procedure. A single dose proton pump inhibitor was administered in gastric ESD cases for 8 weeks beginning the morning of the procedure. Gastric ulcer stages were evaluated by endoscopy as active, healing or scarring at 1, 4, and 8 weeks after ESDs, and application of the self-assembling peptide. The primary endpoint was the rate of post-ESD bleeding. The secondary endpoints include the transitional rate to healing and scarring stages of gastric ESD-induced ulcers. Of the 117 subjects recruited, 114 patients with 124 lesions (esophagus 18; stomach 42; colorectum 64) were enrolled for outcome analysis and […] were excluded due to perforations and […]."}, "[3]": {"system": "gastric ESD-induced ulcers", "assay": "Gastric ulcer stage by endoscopy (active, healing, scarring) after ESD and peptide application", "experimental": "After the ESD procedure, a self-assembling peptide was administered to a target area in the subject. […] For every 1 cm^2 of tumor, 1 mL of self-assembling peptide RADA16, in the form of PuraMatrix™ peptide hydrogel by 3-D Matrix, LTD. (2.5 w/v percent) was applied to the ESD-induced ulcer using a catheter immediately after the procedure. A single dose proton pump inhibitor was administered in gastric ESD cases for 8 weeks beginning the morning of the procedure. Gastric ulcer stages were evaluated by endoscopy as active, healing or scarring at 1, 4, and 8 weeks after ESDs, and application of the self-assembling peptide. The primary endpoint was the rate of post-ESD bleeding. The secondary endpoints include the transitional rate to healing and scarring stages of gastric ESD-induced ulcers."}},
  "note": "Like-named read-outs stand apart in the source and are kept apart here.",
  "data": [
    {"substance": "Arg-Ala-Asp-Ala-Arg-Ala-Asp-Ala-Arg-Ala-Asp-Ala-Arg-Ala-Asp-Ala [PuraMatrix]", "values": [
      {"measurement": "endoscope passage in stenosis direction", "setting": "[1]; 4 weeks after surgery", "result": "possible"},
      {"measurement": "ulcer state by endoscope", "setting": "[1]; 4 weeks after surgery, 2.5%, 1 mL per 1 cm^2, coated at surgery and at first week", "result": "scarring"},
      {"measurement": "endoscope passage in stenosis direction", "setting": "[1]; 8 weeks after surgery", "result": "possible"},
      {"measurement": "side effects of the endoscopic resection (delayed hemorrhaging, perforations)", "setting": "[1]; one subject, esophageal ESD", "result": "no delayed hemorrhaging or perforations"},
      {"measurement": "rate of post-ESD bleeding", "setting": "[2]; all lesions (2/124), 2.5 w/v percent, 1 mL per 1 cm^2, by catheter immediately after ESD", "result": 1.6, "unit": "%"},
      {"measurement": "rate of post-ESD bleeding", "setting": "[2]; colorectum (1/64; 0.02% to 1.6%)", "result": 1.6, "unit": "%"},
      {"measurement": "rate of post-ESD bleeding", "setting": "[2]; esophagus", "result": 0, "unit": "%"},
      {"measurement": "adverse effects related with the use of the self-assembling peptide", "setting": "[2]; in vivo", "result": "no adverse effects"},
      {"measurement": "rate of post-ESD bleeding", "setting": "[2]; stomach (1/43; 95% confidence interval 0.04% to 12.3%)", "result": 2.4, "unit": "%"},
      {"measurement": "Transitional rate to healing stage", "setting": "[3]; at 1 week after ESD, with proton pump inhibitor", "result": 98, "unit": "%"},
      {"measurement": "scarring stage at follow up endoscopy", "setting": "[3]; at 4 weeks after ESD", "result": 21, "unit": "%"},
      {"measurement": "scarring stage at follow up endoscopy", "setting": "[3]; at 8 weeks after ESD", "result": 97, "unit": "%"}
    ]}
  ]
}
